Measurements from US20150164957A1, “CONVERSION OF CARDIOMYOCYTES INTO FAST CONDUCTING CARDIOMYOCYTES OR SLOW CONDUCTING NODAL CELLS” (The University of Chicago, priority 2012, published 2015).

How the values were obtained:
[1] = target: Nav1.8 (Homo sapiens, UniProt Q9Y5Y9); details: at the dose used; cited from earlier work
[2] = tested on: Nav1.8; details: after administration of A-803467; cited from earlier work
[3] = tested on: tamoxifen-treated Tbx5^minKCreERT2 and Tbx5^fl/fl mice; test: Invasive EP studies (intracardiac recordings) following atropine administration; format: in vivo, mouse; details: for AH (AtrioHisian interval) / HV (Hisioventricular interval) / Hd (His interval duration) / SCL (sinus cycle length): Post-Atropine (20 mg/kg), Mean +/- SD
Protocol: Electrophysiology Studies. Electrophysiology studies were performed in collaboration with Fang Liu, Kurt Schillinger, and Vic Patel at The University of Pennsylvania. Detailed protocols for in vivo electrophysiology studies have been previously described (Liu, et al., 2008). 10-12 week old mice were anesthetized with pentobarbital (33 mg/kg ip) and a 1.1-Fr octapolar electrode catheter (Millar; EPR-800) was advanced via a right jugular venous cut-down to record right atrial, His bundle, right ventricular potentials and perform programmed electrical stimulation. For studies involving atropine, surface ECG and intracardiac recordings were obtained, then repeated after mice were injected with 20 mg/kg atropine.
The autonomic nervous system can play an important role in modulating cardiac conduction. Specifically, activation of the sympathetic nervous system can increase heart rate, contractility, and accelerate conduction through the AV node, while parasympathetic stimulation via the vagus nerve can act at the SA and AV nodes to decrease heart rate and slow AV conduction. To determine whether slowed conduction in Tbx5^minkCreERT2 mice was secondary to increased vagal tone, the inventors administered atropine, a cholinergic antagonist, to tamoxifen-treated Tbx5^minKCreERT2 and Tbx5^fl/fl mice and evaluated conduction intervals by EP studies.

[4] = tested on: Mice with hyperactivation of Nav1.8; details: cited from earlier work

Sequence of Nav1.8 (Homo sapiens, UniProt Q9Y5Y9) (Q9Y5Y9 whole entry): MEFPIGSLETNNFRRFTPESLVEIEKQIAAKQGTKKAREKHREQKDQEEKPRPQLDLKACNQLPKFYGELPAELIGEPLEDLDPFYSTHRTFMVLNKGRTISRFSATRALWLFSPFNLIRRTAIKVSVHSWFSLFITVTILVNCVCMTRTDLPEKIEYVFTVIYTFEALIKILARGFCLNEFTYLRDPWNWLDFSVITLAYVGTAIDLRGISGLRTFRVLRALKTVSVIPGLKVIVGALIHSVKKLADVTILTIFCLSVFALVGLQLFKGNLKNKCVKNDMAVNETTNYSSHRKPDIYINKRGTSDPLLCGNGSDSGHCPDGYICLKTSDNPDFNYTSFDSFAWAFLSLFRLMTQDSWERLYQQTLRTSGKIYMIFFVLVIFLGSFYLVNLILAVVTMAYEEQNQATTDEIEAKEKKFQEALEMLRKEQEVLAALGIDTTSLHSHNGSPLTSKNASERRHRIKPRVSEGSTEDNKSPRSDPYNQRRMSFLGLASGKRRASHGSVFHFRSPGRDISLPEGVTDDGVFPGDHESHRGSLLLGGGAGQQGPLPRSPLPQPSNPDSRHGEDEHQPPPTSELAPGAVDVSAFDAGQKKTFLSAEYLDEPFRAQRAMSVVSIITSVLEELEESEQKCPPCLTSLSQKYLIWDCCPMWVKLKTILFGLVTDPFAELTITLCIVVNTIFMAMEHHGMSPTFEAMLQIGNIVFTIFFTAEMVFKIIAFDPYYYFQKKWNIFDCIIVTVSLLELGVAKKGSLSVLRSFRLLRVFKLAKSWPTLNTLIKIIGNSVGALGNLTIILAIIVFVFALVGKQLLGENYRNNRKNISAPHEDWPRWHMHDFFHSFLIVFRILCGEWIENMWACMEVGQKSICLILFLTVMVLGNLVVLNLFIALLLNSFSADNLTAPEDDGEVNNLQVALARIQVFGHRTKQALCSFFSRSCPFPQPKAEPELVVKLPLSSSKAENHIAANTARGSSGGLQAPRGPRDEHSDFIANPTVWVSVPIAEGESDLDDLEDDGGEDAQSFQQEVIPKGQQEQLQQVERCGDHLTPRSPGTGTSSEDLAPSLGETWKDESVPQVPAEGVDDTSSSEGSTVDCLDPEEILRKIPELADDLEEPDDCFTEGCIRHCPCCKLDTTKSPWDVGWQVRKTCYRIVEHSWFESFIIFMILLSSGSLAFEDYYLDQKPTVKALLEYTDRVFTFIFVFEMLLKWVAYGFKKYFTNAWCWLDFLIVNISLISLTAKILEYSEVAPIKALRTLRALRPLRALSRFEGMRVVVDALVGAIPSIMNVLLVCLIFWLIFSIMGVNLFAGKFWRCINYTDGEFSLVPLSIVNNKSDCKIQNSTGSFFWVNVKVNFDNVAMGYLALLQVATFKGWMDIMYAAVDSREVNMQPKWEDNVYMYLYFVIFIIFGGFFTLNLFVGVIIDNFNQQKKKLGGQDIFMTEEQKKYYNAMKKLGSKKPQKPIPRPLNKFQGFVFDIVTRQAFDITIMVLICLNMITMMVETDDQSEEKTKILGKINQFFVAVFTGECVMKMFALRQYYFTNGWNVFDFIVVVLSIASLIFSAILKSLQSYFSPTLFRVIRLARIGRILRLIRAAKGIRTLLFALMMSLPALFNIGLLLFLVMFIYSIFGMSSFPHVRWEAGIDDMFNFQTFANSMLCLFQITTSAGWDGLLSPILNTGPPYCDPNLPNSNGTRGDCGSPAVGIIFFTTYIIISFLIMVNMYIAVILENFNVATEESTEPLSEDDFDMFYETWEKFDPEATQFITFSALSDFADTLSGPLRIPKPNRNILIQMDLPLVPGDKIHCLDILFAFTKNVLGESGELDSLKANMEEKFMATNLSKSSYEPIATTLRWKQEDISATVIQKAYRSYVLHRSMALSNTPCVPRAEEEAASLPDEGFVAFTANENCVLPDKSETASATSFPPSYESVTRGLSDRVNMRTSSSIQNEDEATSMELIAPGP

SMILES	Activity against Nav1.8 relative to Nav1.5 [1] [fold]	H-V interval [2]	P-R interval [2]	QRS interval [2]	AH (AtrioHisian interval) ([3]; Tbx5^fl/fl mice (n = 3)) [ms]	HV (Hisioventricular interval) ([3]; Tbx5^fl/fl mice (n = 3)) [ms]	Hd (His interval duration) ([3]; Tbx5^fl/fl mice (n = 3)) [ms]	SCL (sinus cycle length) ([3]; Tbx5^fl/fl mice (n = 3)) [ms]	AH (AtrioHisian interval) ([3]; Tbx5^minKCreERT2 mice (n = 3)) [ms]	HV (Hisioventricular interval) ([3]; Tbx5^minKCreERT2 mice (n = 3)) [ms]	Hd (His interval duration) ([3]; Tbx5^minKCreERT2 mice (n = 3)) [ms]	SCL (sinus cycle length) ([3]; Tbx5^minKCreERT2 mice (n = 3)) [ms]	Effect of cholinergic blockade on conduction ([3]; Tbx5^minKCreERT2 or Tbx5^fl/fl mice, EP studies)	Effect on sinus bradycardia following scruffing [4]
COc1cc(NC(=O)c2ccc(-c3ccc(Cl)cc3)o2)cc(OC)c1 [A-803467]	100	increased	increased	increased	–	–	–	–	–	–	–	–	–	–
CN1[C@@H]2CC[C@H]1C[C@@H](OC(=O)C(CO)c1ccccc1)C2 (some centres unmarked) [Atropine, atropine]	–	–	–	–	28.0 ± 9.9	9.0 ± 3.2	3.7 ± 1.5	141.3 ± 30.9	35.7 ± 3.6	26.0 ± 2.4	11.7 ± 2.5	146.3 ± 11.6	did not result in accelerated conduction	blocked
